Data set [1] relates to purified calfthymus DNA. Nature of the data set: Thermal denaturation of DNA (ΔTm). Format: binding, calf. Particulars: 0.01 M phosphate, EDTA, buffer pH 7.0. Here is the method: ^a ΔTm = Tm of DNAdrug complex minut Tm of
purified calfthymus DNA.
(§1) Medium: 0.01 M phosphate containing 10^-4 EDTA, buffer pH 7.0.
Melting points were determined on a Thomas-Hoover melting point apparatus at a heating rate of 2° C./min. Dry column chromatography was accomplished with silicic acid powder (Bio-Sil A 100-200 mesh, Bio-Rad Laboratories, Inc.) or acid alumina (Woelm grade 1). Thin layer chromatography was performed on silica gel plates (Brinkmann Instrument, Inc.). For oxazinone analogues (2b), the silica gel plates were exposed to the vapor of conc. HCL in an air-tight container for 20 min before application of the compound for TLC. This procedure helped to prevent the streaking of the compounds in the chromatogram. Solvent systems were (A) EtOAc-acetone (2:1); (B) dry t-BuOH-C6 H6 --C6 H5 N (85:12.5:2.5); (C) Cifferri, the organic phase of the mixture EtOAc-MeOH-H2 O (20:L:20). High performance-liquid chromatography was carried out on a Varian Model 5020 gradient liquid chromatograph equipped with CD-111L chromatography data system and fitted with Varian reversed-phase C18 column with isocratic solvent systems, CH3 CN-5 mM NH4 OAc buffer, pH 6.4 (68:32), flow rate 15 mL/mn, with UV-visible variable and fixed wavelength dual detectors at 254,440, 500 and 252 nm. Spectra were determined on the following instruments: IR spectra were obtained on the Perkin-Elmer Model 237 Infra Cord with KBr micropellets or in CHCl3 solutions; UV-visible spectra were obtained on a Gilford 250 spectrophotometer, which, with the addition of a baseline reference compensator (Analog Multiplexer 5053) and thermoprogrammer, auto four cell programmer and thermoelectric cell holder 2577, were used to obtain thermal denaturation curves; specific rotational values were determined in CHCl3 solutions using a Cary 60 spectropolarimeter; NMR spectra were obtained in a JOEL FQ -90 MHz spectrometer equipped with Fourier transform. All elemental analyses were within +0.4%, unless it is specified otherwise.
DNA-DRUG BINDING BY DIFFERENCE SPECTRAL AND THERMAL DEVATURATION OF DNA (ΔTm) TECHNIQUES […]

Data set [2] deals with human lymphoblastic leukemia cells (CCRF-CEM). As to the kind of experiment: In vitro growth inhibition of CCRF-CEM cells. Format: cell-based. Particulars: for In Vitro (CCRF-CEM) ID50: cells in log-phase growth, suspension culture, final growth medium 5% Me2SO. As to the method:
^b Human lymphoblastic luekemia cells in logphase growth and in a
suspension culture. Compounds were dissolved in Me2 SO medium, final
growth medium contained 5% Me2 SO.
In vitro growth inhibition of the analogues were assayed against human lymphoblastic leukemia cells (CCRF-CEM) in log phase. The most cyctoxic are AMD-OZN analogues 2b and 2g and AMD-OZL analogues 4a-4c. However, compared to AMD, they are several fold less cytotoxic to CEM-cells in vitro.

In data set [3] the test system is P388 lymphocytic leukemia. Nature of the data set: In vivo P388 assay. Particulars: ip days 1,5,9; for % ILS (percent increase in life span) / MST (median survival time) / Cure (over 60 day survivors): at optimum dose; for % ILS (percent increase in life span) / MST (median survival time): CDF1 male mice; for MST (median survival time): control MST 11.0 days; for Cure (over 60 day survivors): group of 7 CDF1 male mice, average of 2 experiments. On the set-up: species or system mice. Here is the method:
^c 10^6 P388 cells implanted intraperitoneally on day 0 into a
group of 7 CDF1 male mice. Drugs were administered, also ip, in 10%
Me2 SO--saline on days 1,5,9. Test solutions were kept at 0-4.degree
C., protected from light.
These analogues were tested for antitumor activity against P388 lymphocytic leukemia in male CDF1 hybrid mice (Table 6). The tumor was implanted intraperitoneally (ip) with 10^6 cells. The drugs were administered once daily on days 1, 5, 9 beginning 1 day after implantation.

Data set [4] relates to DNA. As to the kind of experiment: DNA-drug binding by difference spectral (absorption and CD) techniques. Particulars: for Diff. CD Spectra -Δ[θ]max (nm): DNA-bound vs combined individual spectra; for Diff. CD Spectra -Δ[θ]max (nm) / Diff. Absorption Spectra -Δεmax (nm): 340-600 nm, wavelength in brackets, phosphate buffer pH 7.0; for Diff. Absorption Spectra -Δεmax (nm): free minus DNA-bound spectrum.
Text: ^b Diff. Absorption Spectra is the calculated absorption spectra
obtained by subtracting the spectrum of the DNAbound analogue from the
spectrum of the free analogue, measured at 340-600 nm.
^c Diff. CD Spectra is the calculated CD Spectra obtained as the
difference of the DNAbound from the combined individual spectra of
analogues and DNA at 340-600 nm.
as §1
DNA-DRUG BINDING BY DIFFERENCE SPECTRAL AND THERMAL DEVATURATION OF DNA (ΔTm) TECHNIQUES
These experiments were performed according to the methods described by Sengupta et al., Cancer Chemother. Rep., 1974, 58, p. 35, Sengupta et al, J. Med. Chem., 1981, 24, p. 1052 and Sengupta et al, 1983, 26, p. 448, Sengupta et al, 1978, Biochem. Biophys Acta, 521, p. 89.

Data set [5] can be described thus: Solubility in distilled water. As to the method:
SOLUBILITY OF ACTINOMYCIN D AND ANALOGUES 2b, 3b AND 4b IN DISTILLED WATER AT 20° C. AND 4° C.

For data set [6], the system named is mouse leukemia cells. The following applies: known before this invention; cited from earlier work.

In brackets after ≈: the same amount, converted by molar mass. Numbered stars: 1 amine (or outer) side, 2 acyl side, 3 side chain; on linkers, the order of the positions; unused ones are H or OH. Bridge positions count the residues as written; N and C are the ends. Square brackets hold non-standard residues; d marks the D form. Peptide text beside a SMILES is read from it. I, II: the chains in the order shown. Actinocin(9to1) = Cc1c2oc3c(C)ccc(C(=O)[*:1])c3nc-2c(C(=O)[*:2])c(N)c1=O; NMeV = CN[C@H](C(=O)O)C(C)C; Sar = CNCC(=O)O

The source of these data is patent US4562176A, “Method and composition for treating cancer” (priority 1985, dated 1985).

Turning to `Cc1c2oc3c(C)ccc(C(=O)N[C@@H]4C(=O)N[C@H](C(C)C)C(=O)N5CCC[C@H]5C(=O)N(C)CC(=O)N(C)[C@@H](C(C)C)C(=O)O[C@@H]4C)c3nc-2c(C(=O)N[C@@H]2C(=O)N[C@H](C(C)C)C(=O)N3CCC[C@H]3C(=O)N(C)CC(=O)N(C)[C@@H](C(C)C)C(=O)O[C@@H]2C)c(N)c1=O` [Compound 1a, Actinomycin D, reference compound] (I: T[dV]P[Sar][NMeV] / II: T[dV]P[Sar][NMeV]; ester I:1-I:C, II:1-II:C; linker I:N-II:N via Actinocin(9to1)), the “ΔTm (Tm of DNA-drug complex minus Tm of DNA)” value in data set [1] is 7.1 ± 0.15 °C. For the same compound, in data set [2], the “In Vitro (CCRF-CEM) ID50” value turned out to be 0.04 µg/mL. For the same compound, in data set [3], the “% ILS (percent increase in life span)” value was 136%, the “MST (median survival time)” value turned out to be 26 days and the “Cure (over 60 day survivors)” value is 1/7. In data set [4], the “Diff. CD Spectra -Δ[θ]max (nm)” value is on record as 40,000(390) and the “Diff. Absorption Spectra -Δεmax (nm)” value was 8,240(425). Also, in data set [4] (difference spectral or ΔTm techniques), the “DNA binding (in words)” value is “binds to DNA strongly by intercalation”. Besides, the “solubility in distilled water” value in data set [5] (4° C.) is listed as 20.5 mg/mL (≈ 16.3 mM). The “solubility in distilled water” value in data set [5] (20° C.) came to 0.9 mg/mL (≈ 0.717 mM).
With `Cc1c2oc3c(C)c(O)cc(C(=O)N[C@@H]4C(=O)N[C@H](C(C)C)C(=O)N5CCC[C@H]5C(=O)N(C)CC(=O)N(C)[C@@H](C(C)C)C(=O)O[C@@H]4C)c3nc-2c(C(=O)N[C@@H]2C(=O)N[C@H](C(C)C)C(=O)N3CCC[C@H]3C(=O)N(C)CC(=O)N(C)[C@@H](C(C)C)C(=O)O[C@@H]2C)c(N)c1=O` [Compound 1b, 7-HYDROXY ACTINOMYCIN D], the “ΔTm (Tm of DNA-drug complex minus Tm of DNA)” value in data set [1] came to 6.7 ± 0.15 °C. In data set [4], the “Diff. CD Spectra -Δ[θ]max (nm)” value is 31,000(485) and the “Diff. Absorption Spectra -Δεmax (nm)” value is listed as 9,380(550).
For `Cc1ccc(C(=O)N[C@@H]2C(=O)N[C@H](C(C)C)C(=O)N3CCC[C@H]3C(=O)N(C)CC(=O)N(C)[C@@H](C(C)C)C(=O)O[C@@H]2C)c2c1Oc1c(c(C(=O)N[C@@H]3C(=O)N[C@H](C(C)C)C(=O)N4CCC[C@H]4C(=O)N(C)CC(=O)N(C)[C@@H](C(C)C)C(=O)O[C@@H]3C)c3nc(-c4ccccc4)c(=O)oc3c1C)N2` [Compound 2b], the “cytotoxicity to CEM cells (in words)” value in data set [2] (CCRF-CEM in log phase) is listed as “most cyctoxic”. For the same compound, the “In Vitro (CCRF-CEM) ID50” value in data set [2] is 0.44 µg/mL. The “activity against human cancer cells (in words)” value in data set [2] (human cancer cells) is on record as “highest human antitumor effects”. Moreover, the “antitumor activity against P388 (in words)” value in data set [3] (CDF1 mice) is “most active”. For the same compound, in data set [3], the “% ILS (percent increase in life span)” value was determined as 309%, the “MST (median survival time)” value was 45 days and the “Cure (over 60 day survivors)” value is reported as 2/7. Moreover, the “activity against mouse leukemia cells” value in data set [6] is given as “active”.
`Cc1nc2c(C(=O)N[C@@H]3C(=O)N[C@H](C(C)C)C(=O)N4CCC[C@H]4C(=O)N(C)CC(=O)N(C)[C@@H](C(C)C)C(=O)O[C@@H]3C)c3c(c(C)c2o1)Oc1c(C)ccc(C(=O)N[C@@H]2C(=O)N[C@H](C(C)C)C(=O)N4CCC[C@H]4C(=O)N(C)CC(=O)N(C)[C@@H](C(C)C)C(=O)O[C@@H]2C)c1N3` [Compound 3a]: the “ΔTm (Tm of DNA-drug complex minus Tm of DNA)” value in data set [1] was 0.0 ± 0.30 °C. In addition, the “In Vitro (CCRF-CEM) ID50” value in data set [2] turned out to be 2.9 µg/mL. For the same compound, in data set [3], the “% ILS (percent increase in life span)” value was determined as 91%, the “MST (median survival time)” value turned out to be 21 days and the “Cure (over 60 day survivors)” value is on record as 0/7. Also, in data set [4], the “Diff. CD Spectra -Δ[θ]max (nm)” value is on record as “nil” and the “Diff. Absorption Spectra -Δεmax (nm)” value is on record as “nil”.
